Values quoted from earlier work in patent publication US7041675B2, “Heterocyclic compounds and their use as PARP inhibitors” (Abbott GmbH & Co. KG, priority 2000, dated 2006).

System: model of circulatory shock
Details: S. Cuzzocrea et al., Br. J. Pharmacol. 1997

## NC(=O)c1cccc(N)c1 [3-aminobenzamide]
  protective effects in a model of circulatory shock: protective effects
